Test: xn = mol fraction of the nth substance listed
Conditions: 298.15 K, 101 kPa

O=P([O-])([O-])O.[Na+].[Na+] + CCCCCCCCCCCC[N+](C)(C)C.[Br-] + O
Conditions	electrical conductivity [S/m]
x2 = 0, x1 = 0.0001802	0.1834
x2 = 0, x1 = 0.001799	1.203
x2 = 3.43e-06, x1 = 0.0001802	0.1849
x2 = 4.01e-06, x1 = 0.001799	1.201
x2 = 7.22e-06, x1 = 0.0001802	0.1863
x2 = 1.095e-05, x1 = 0.001799	1.202
x2 = 1.245e-05, x1 = 0.0001802	0.1888
x2 = 1.967e-05, x1 = 0.0001802	0.1919
x2 = 2.007e-05, x1 = 0.001799	1.204
x2 = 2.851e-05, x1 = 0.0001802	0.1958
x2 = 2.882e-05, x1 = 0.001799	1.205
x2 = 3.717e-05, x1 = 0.0001802	0.1997
x2 = 4.214e-05, x1 = 0.001799	1.207
x2 = 4.619e-05, x1 = 0.0001802	0.2038
x2 = 5.521e-05, x1 = 0.0001802	0.2079
x2 = 5.582e-05, x1 = 0.001799	1.209
x2 = 6.423e-05, x1 = 0.0001802	0.212
x2 = 6.895e-05, x1 = 0.001799	1.212
x2 = 7.307e-05, x1 = 0.0001801	0.2161
x2 = 8.173e-05, x1 = 0.0001801	0.2201
x2 = 8.209e-05, x1 = 0.001799	1.215
x2 = 9.056e-05, x1 = 0.0001801	0.224
x2 = 9.522e-05, x1 = 0.001799	1.218
x2 = 9.922e-05, x1 = 0.0001801	0.2279
x2 = 0.0001077, x1 = 0.0001801	0.2317
x2 = 0.0001087, x1 = 0.001799	1.221
x2 = 0.0001165, x1 = 0.0001801	0.2356
x2 = 0.0001218, x1 = 0.001799	1.224
x2 = 0.000125, x1 = 0.0001801	0.2393
x2 = 0.0001335, x1 = 0.0001801	0.243
x2 = 0.0001366, x1 = 0.001799	1.228
x2 = 0.0001441, x1 = 0.0001801	0.2473
x2 = 0.0001519, x1 = 0.001798	1.232
x2 = 0.0001524, x1 = 0.0001801	0.2509
x2 = 0.0001609, x1 = 0.0001801	0.2547
x2 = 0.0001667, x1 = 0.001798	1.236
x2 = 0.0001694, x1 = 0.0001801	0.2586
x2 = 0.0001777, x1 = 0.0001801	0.2624
x2 = 0.0001813, x1 = 0.001798	1.24
x2 = 0.0001858, x1 = 0.0001801	0.2662
x2 = 0.0001937, x1 = 0.0001801	0.2697
x2 = 0.0001963, x1 = 0.001798	1.243
x2 = 0.0002019, x1 = 0.0001801	0.2733
x2 = 0.0002103, x1 = 0.0001801	0.2774
x2 = 0.0002105, x1 = 0.001798	1.246
x2 = 0.0002184, x1 = 0.0001801	0.2809
x2 = 0.0002245, x1 = 0.001798	1.249
x2 = 0.000226, x1 = 0.0001801	0.2841
x2 = 0.0002339, x1 = 0.0001801	0.2867
x2 = 0.0002387, x1 = 0.001798	1.252
x2 = 0.0002421, x1 = 0.0001801	0.2888
x2 = 0.0002516, x1 = 0.0001801	0.2909
x2 = 0.0002524, x1 = 0.001798	1.254
x2 = 0.0002625, x1 = 0.0001801	0.2928
x2 = 0.0002663, x1 = 0.001798	1.257
x2 = 0.0002743, x1 = 0.0001801	0.2947
x2 = 0.0002801, x1 = 0.001798	1.259
x2 = 0.0002882, x1 = 0.0001801	0.2967
x2 = 0.0002936, x1 = 0.001798	1.262
x2 = 0.0003037, x1 = 0.0001801	0.2989
x2 = 0.0003071, x1 = 0.001798	1.265
x2 = 0.0003189, x1 = 0.0001801	0.3011
x2 = 0.0003202, x1 = 0.001798	1.268
x2 = 0.0003294, x1 = 0.001798	1.27
x2 = 0.0003301, x1 = 0.0001801	0.3025

CCCC[n+]1ccc(C)cc1.F[B-](F)(F)F + O
Conditions	electrical conductivity [S/m]
x1 = 0.0002198	0.131
x1 = 0.0004197	0.206
x1 = 0.0007725	0.357
x1 = 0.001123	0.486
x1 = 0.001267	0.554
x1 = 0.001481	0.638
x1 = 0.00182	0.757
x1 = 0.00217	0.871
x1 = 0.002506	0.979
x1 = 0.002721	1.01
x1 = 0.002887	1.07
x1 = 0.003188	1.19
x1 = 0.003487	1.27
x1 = 0.003843	1.36
x1 = 0.004144	1.44
x1 = 0.004481	1.52

From the CheMixHub ionic liquid set
